≈ marks a conversion by molar mass, not a printed value. Where two headings read alike, the source gives them in different places.
Legend:
Type in all cases: cell-based
[1] = tested on: Peptococcus magnus KY 017; experiment: MIC, in vitro antibacterial activity (standard strains); settings: Finegoldia magna, KY017; Peptococcus magnus KY 017, 10^6 cells/ml, Gram +
B. catarrhalis = experiment: MIC, in vitro antibacterial activity (clinical isolates); settings: Moraxella catarrhalis; clinical isolates B. catarrhalis, No. of strains 21; read-out: MIC
P. mirabilis = experiment: as above; settings: Proteus mirabilis, No. of strains 10
C. freundii = experiment: as above; settings: Citrobacter freundii, No. of strains 9
P. aeruginosa = experiment: as above; settings: Pseudomonas aeruginosa; clinical isolates P. aeruginosa, No. of strains 27; read-out: MIC
MR-S. aureus = experiment: as above; settings: Staphylococcus aureus, No. of strains 46
S. marcescens GN 7577 = tested on: S. marcescens GN 7577
[2] = tested on: Peptostreptococcus anaerobius KYA 27337; experiment: MIC, in vitro antibacterial activity (standard strains); settings: KYA27337; Peptostreptococcus anaerobius KYA 27337, 10^6 cells/ml, Gram +
C. ramosum = experiment: as above; settings: Thomasclavelia ramosa, 10^6 cells/ml, Gram +
[3] = tested on: Yersinia enterocolitica IID 981; experiment: as above; settings: IID981; Yersinia enterocolitica IID 981, 10^6 cells/ml, Gram -
F. varium KYA 8501 = experiment: as above; settings: Fusobacterium varium, KYA8501; F. varium KYA 8501, 10^6 cells/ml, Gram -; read-out: MIC
Shigella sonnei IID 969 = experiment: as above; settings: IID969; Shigella sonnei IID 969, 10^6 cells/ml, Gram -
Protocol: Minimal inhibitory concentrations (MICs) were determined in accordance with the method recommended by Japan Society of Chemotherapy.

[4] = tested on: Propionibacterium acens 11828; experiment: as above; settings: Propionibacterium acens 11828, 10^6 cells/ml, Gram +
Acinetobacter sp. = experiment: MIC, in vitro antibacterial activity (clinical isolates); settings: clinical isolates Acinetobacter sp., No. of strains 13; read-out: MIC
P. maltophilia = experiment: as above; settings: Stenotrophomonas maltophilia, No. of strains 9
N. gonorrhoeae = experiment: as above; settings: Neisseria gonorrhoeae, No. of strains 16
[5] = tested on: Enterobacter cloacae IID 977; experiment: MIC, in vitro antibacterial activity (standard strains); settings: IID977; Enterobacter cloacae IID 977, 10^6 cells/ml, Gram -
[6] = tested on: Proteus vulgaris IFO 3167; experiment: as above; settings: Proteus vulgaris, IFO3167
[7] = tested on: Fusobacterium necrophorum S-45; experiment: as above; settings: S45; Fusobacterium necrophorum S-45, 10^6 cells/ml, Gram -
[8] = tested on: Klebsiella pneumoniae KY(GN)6445; experiment: as above
E. faecalis IID 682 = experiment: as above; settings: Enterococcus faecalis, IID682; E. faecalis IID 682, 10^6 cells/ml, Gram +
[9] = tested on: Alcaligenes faecalis 0104002; experiment: as above; settings: Alcaligenes faecalis 0104002, 10^6 cells/ml, Gram -; read-out: MIC
[10] = tested on: Veillonella parvula KYA 10790; experiment: as above; settings: KYA10790; Veillonella parvula KYA 10790, 10^6 cells/ml, Gram -
S. pneumoniae = experiment: MIC, in vitro antibacterial activity (clinical isolates); settings: Streptococcus pneumoniae; clinical isolates S. pneumoniae, No. of strains 6; read-out: MIC
[11] = tested on: Escherichia coli NIHJ JC-2; experiment: MIC, in vitro antibacterial activity (standard strains); settings: NIHJJC2; Escherichia coli NIHJ JC-2, 10^6 cells/ml, Gram -; read-out: MIC
S. marcescens = experiment: MIC, in vitro antibacterial activity (clinical isolates); settings: Serratia marcescens, No. of strains 20
S. aureus Smith = settings: Conc. of Drugs 2MIC
[12] = tested on: Streptococcus pyogenes (S-8); experiment: MIC, in vitro antibacterial activity (standard strains); settings: Streptococcus pyogenes (S-8), 10^6 cells/ml, Gram +; read-out: MIC
H. influenzae = experiment: MIC, in vitro antibacterial activity (clinical isolates); settings: Haemophilus influenzae, No. of strains 26
[13] = tested on: Eubacterium lentum GAI 5242; experiment: MIC, in vitro antibacterial activity (standard strains); settings: Eggerthella lenta, GAI5242; Eubacterium lentum GAI 5242, 10^6 cells/ml, Gram +
P. mirabilis IID 994 = experiment: as above; settings: Proteus mirabilis, IID994
Pst. microns UPI 5464-1 = experiment: as above; settings: Pst. microns UPI 5464-1, 10^6 cells/ml, Gram +
E. cloacae = experiment: MIC, in vitro antibacterial activity (clinical isolates); settings: Enterobacter cloacae
P. aeruginosa IFO 1210 = tested on: P. aeruginosa IFO 1210
P. morganii IID 602 = experiment: MIC, in vitro antibacterial activity (standard strains); settings: Morganella morganii, IID602; P. morganii IID 602, 10^6 cells/ml, Gram -
P. aeruginosa IFO 12689 = tested on: P. aeruginosa IFO 12689
[14] = S. marcescens GN 7577, Conc. of Drugs 4MIC
[15] = S. marcescens GN 7577, Conc. of Drugs 8MIC
[16] = P. aeruginosa IFO 1210, Conc. of Drugs 2MIC
[17] = P. aeruginosa IFO 1210, Conc. of Drugs 4MIC
[18] = P. aeruginosa IFO 12689, Conc. of Drugs 2MIC
[19] = P. aeruginosa IFO 12689, Conc. of Drugs 4MIC

SMILES | MIC [1] | MIC (B. catarrhalis) | MIC (P. mirabilis) | MIC (C. freundii) | MIC (P. aeruginosa) | MIC (MR-S. aureus) | Frequency of spontaneous resistant mutants (S. marcescens GN 7577; [14]) | Frequency of spontaneous resistant mutants (S. marcescens GN 7577; [15]) | MIC [2] | MIC (C. ramosum) | MIC [3] | MIC (F. varium KYA 8501) | MIC (Shigella sonnei IID 969) | MIC [4] | MIC (Acinetobacter sp.) | MIC (P. maltophilia) | MIC (N. gonorrhoeae) | MIC [5] | MIC [6] | MIC [7] | other results
CC1CN(c2c(F)cc3c(=O)c(C(=O)O)cn(C4CC4)c3c2Cl)CCN1 (stereo not shown) [Ref.2, 8-Chloro-1-cyclopropyl-6-fluoro-1,4-dihydro-7-(3-methyl-1-piperazinyl)-4-oxo-3-quinolinecarboxylic acid] | 0.2 µg/mL | 0.05 µg/mL (≈ 0.132 µM) | 0.05 µg/mL (≈ 0.132 µM) | 0.2 µg/mL (≈ 0.527 µM) | 1.56 µg/mL (≈ 4.11 µM) | 0.39 µg/mL (≈ 1.03 µM) | 9.9 × 10^-7 | 2.1 × 10^-9 | 0.78 µg/mL | 3.13 µg/mL | 0.05 µg/mL (≈ 0.132 µM) | 3.13 µg/mL (≈ 8.24 µM) | 0.0125 µg/mL (≈ 0.0329 µM) | 3.13 µg/mL | 0.78 µg/mL (≈ 2.05 µM) | 1.56 µg/mL (≈ 4.11 µM) | 0.006 µg/mL (≈ 0.0158 µM) | 0.05 µg/mL (≈ 0.132 µM) | 0.0125 µg/mL (≈ 0.0329 µM) | 0.39 µg/mL (≈ 1.03 µM) | MIC ([8]; Klebsiella pneumoniae KY(GN)6445, 10^6 cells/ml, Gram -, read-out: MIC): 0.025 µg/mL (≈ 0.0658 µM); MIC (E. faecalis IID 682): 0.39 µg/mL; MIC [9]: 0.2 µg/mL (≈ 0.527 µM); MIC [10]: 0.2 µg/mL (≈ 0.527 µM); MIC (S. pneumoniae): 0.78 µg/mL (≈ 2.05 µM); MIC [11]: ≤ 0.006 µg/mL; MIC (S. marcescens): 0.05 µg/mL (≈ 0.132 µM); Frequency of spontaneous resistant mutants (S. aureus Smith): 3.6 × 10^-7; MIC [12]: 0.39 µg/mL (≈ 1.03 µM); MIC (H. influenzae): 0.025 µg/mL (≈ 0.0658 µM); MIC [13]: 0.2 µg/mL; MIC (P. mirabilis IID 994): 0.0125 µg/mL (≈ 0.0329 µM); MIC (Pst. microns UPI 5464-1): 0.2 µg/mL; MIC (E. cloacae): 0.05 µg/mL (≈ 0.132 µM); Frequency of spontaneous resistant mutants (P. aeruginosa IFO 1210; [16]): 7.7 × 10^-8; Frequency of spontaneous resistant mutants (P. aeruginosa IFO 1210; [17]): <6.7 × 10^-10; MIC (P. morganii IID 602): 0.05 µg/mL (≈ 0.132 µM); Frequency of spontaneous resistant mutants (P. aeruginosa IFO 12689; [18]): 5.5 × 10^-7; Frequency of spontaneous resistant mutants (P. aeruginosa IFO 12689; [19]): <6.3 × 10^-10
NC1CCN(c2c(F)cc3c(=O)c(C(=O)O)cn(C4CC4)c3c2Cl)C1 (stereo not drawn) [Example 25, 7-(3-Amino-l-pyrrolidinyl)-8-chloro-l-cyclopropyl-6-fluoro-1,4-dihydro-4-oxo-3-quinolinecarboxylic acid] | 0.05 µg/mL | 0.05 µg/mL (≈ 0.137 µM) | 0.05 µg/mL (≈ 0.137 µM) | 0.1 µg/mL (≈ 0.273 µM) | 0.2 µg/mL (≈ 0.547 µM) | 0.1 µg/mL (≈ 0.273 µM) | <5.3 × 10^-10 | <5.3 × 10^-10 | 0.2 µg/mL | 0.78 µg/mL | 0.025 µg/mL (≈ 0.0683 µM) | 0.78 µg/mL (≈ 2.13 µM) | 0.0125 µg/mL (≈ 0.0342 µM) | 1.56 µg/mL | 0.1 µg/mL (≈ 0.273 µM) | 0.78 µg/mL (≈ 2.13 µM) | 0.013 µg/mL (≈ 0.0355 µM) | 0.05 µg/mL (≈ 0.137 µM) | 0.0125 µg/mL (≈ 0.0342 µM) | 0.2 µg/mL (≈ 0.547 µM) | Frequency of spontaneous resistant mutants (S. marcescens GN 7577; S. marcescens GN 7577, Conc. of Drugs 2MIC): 2.3 × 10^-7; MIC ([8]; Klebsiella pneumoniae): 0.0125 µg/mL (≈ 0.0342 µM); MIC (E. faecalis IID 682): 0.1 µg/mL; MIC [9]: 0.05 µg/mL (≈ 0.137 µM); MIC [10]: 0.05 µg/mL (≈ 0.137 µM); MIC (S. pneumoniae): 0.1 µg/mL (≈ 0.273 µM); MIC [11]: ≤ 0.006 µg/mL; MIC (S. marcescens): 0.05 µg/mL (≈ 0.137 µM); Frequency of spontaneous resistant mutants (S. aureus Smith): <2.9 × 10^-9; MIC [12]: 0.05 µg/mL (≈ 0.137 µM); MIC (H. influenzae): 0.013 µg/mL (≈ 0.0355 µM); MIC [13]: 0.1 µg/mL; MIC (P. mirabilis IID 994): 0.0125 µg/mL (≈ 0.0342 µM); MIC (Pst. microns UPI 5464-1): 0.05 µg/mL; MIC (E. cloacae): 0.013 µg/mL (≈ 0.0355 µM); Frequency of spontaneous resistant mutants (P. aeruginosa IFO 1210; [16]): <6.7 × 10^-10; Frequency of spontaneous resistant mutants (P. aeruginosa IFO 1210; [17]): <6.7 × 10^-10; MIC (P. morganii IID 602): 0.05 µg/mL (≈ 0.137 µM); Frequency of spontaneous resistant mutants (P. aeruginosa IFO 12689; [18]): 4.5 × 10^-8; Frequency of spontaneous resistant mutants (P. aeruginosa IFO 12689; [19]): <6.3 × 10^-10
